Test results as given in patent publication US20160030438A1, “ANTI-TUMORAL COMPOSITION COMPRISING A PI3KBETA INHIBITOR AND A RAF INHIBITOR, TO OVERCOME CANCER CELLS RESISTANCE” (SANOFI, priority 2013, published 2016).

Legend:
[1] = test system: human melanoma cell line A2058; test: In vitro anti-proliferative activity (CelltiterGlo, ray design) in A2058, example 3; type: cell-based; details: for Absolute IC40: A2058, 96 hours, example 3
Procedure: (I) in combination with the BRAF inhibitor compound (II), experiments were conducted using human melanoma cell line A2058 (BRAF mutant, PTEN-deficient and unsensitive to said BRAF inhibitor).
(§1) The human melanoma A2058 cell line was purchased at ATCC (Ref number CRL-11147 Batch 5074651). The A2058 cells were cultured in DMEM High glucose medium supplemented with 10% FBS and 2 mM L-Glutamine.
Compounds (I) and (II) dilutions were prepared according to the material and methods of example 1. The final concentrations tested were defined by Ray design method described below. The DMSO concentration was 0.1% in controls and in all treated wells.
A ray design was used allowing the characterization of the interaction of the two compounds for several fixed proportion in the mixture. The ray design includes one ray for each single agent and 19 combination rays.
A2058 cells were plated at 4,000 cells/well in 384-well plates in appropriate culture medium and incubated for 6 hours at 37° C., 5% CO2. […] Cell growth was evaluated by measuring intracellular ATP using CelltiterGlo® reagent (Promega) according to the manufacturer's protocol. Briefly, CellTiterGlo® was added to each plate, incubated for 1 hour then luminescent signal was read on the MicroBeta Luminescent plate reader.
Four experiments have been performed on this cell line. For each experiment, two 384-well plates were used allowing working with duplicates for combination rays and with quadruplicates for single agent rays.
Inhibition of cell growth was estimated after treatment with single compounds or combination of compounds for four days and comparing the signal to cells treated with vehicle (DMSO) and following equation described in example 1.
These measurements allow determining the potential synergistic combinations in using the statistical method described in example 1.

[2] = test system: human melanoma cell line A2058; test: In vitro pro-apoptotic activity (PARP cleavage) in A2058 in a concentration-dependent manner, example 6; type: cell-based; details: A2058, example 6
Procedure: (§2) The characterization of the interaction between compound (I) and compound (II) was studied using western blotting method which allows investigating apoptosis by detecting the cleavage of the PARP protein.
as §1
(§3) Cell treatment, Western Blot experiment and calculation of apoptosis fold induction were performed according to the material and method described in example 2.

[3] = test system: human melanoma cell line WM-266-4; test: In vitro pro-apoptotic activity (PARP cleavage) in WM-266-4 in a concentration-dependent manner, example 5; type: cell-based; details: WM-266-4, example 5
Procedure: as §2
(§4) The human melanoma WM-266-4 cell line was purchased at ATCC (Ref number CRL-1676 Batch 3272826). The WM-266-4 cells were cultured in RPMI1640 medium supplemented with 10% FBS and 2 mM L-Glutamine.
(§5) They were diluted following two 10-fold step dilution in DMSO in order to obtain a 1 mM solution and a 0.1 mM solution Then each solution at 10 mM, 1 mM or 0.1 mM was diluted 50-fold in culture medium containing 10% serum before being added onto cells with a 20-fold dilution factor to reach final concentrations of 10,000 nM, 1,000 nM and 100 nM. The final DMSO concentration was 0.1% in controls and in all treated wells.
as §3

[4] = test system: ribosomal protein S6 phosphorylated on Ser240/244 (pS6) in WM-266-4 cells; test: In vitro S6 phosphorylation inhibition (pS6 western blot) in WM-266-4, example 7; type: cell-based, human; details: for inhibition at 0.1 µM: Homo sapiens
Procedure: The inhibitory effect on ribosomal S6 protein phosphorylation by both compounds alone or in combination was characterized using western blotting method which allows investigating S6 phosphorylation by detecting the expression of ribosomal protein S6 phosphorylated on Ser240/244 position (pS6).
as §4
(§6) WM-266-4 cells were seeded into 6-well microplates at 1 000 000 cells per well, in complete culture medium and incubated at 37° C., 5% CO2, overnight.
(§7) At the end of cell treatment period, adherent cells as well as cells in the cell culture supernatant were lysed for the preparation of the proteins. Cells were lysed in a lysis buffer containing Hepes 50 mM, NaCl 150 mM, Glycerol 10%, Triton 1%, pH=7.5, adding extemporaneously a cocktail of protease and phosphatase inhibitors diluted 100 fold. Protein concentrations in each sample were determined using microBCA technique according to manufacturer's instructions. […] After western blotting revelation according to the operating procedure instructions, luminescence was read using FujiFilm (Ray Test) apparatus.
(§8) This instrument measures the total signal of luminescence obtained on Fujifilm machine (AU) for each selected band. Then, it subtracts the background value (BG) proportional to the size of the selected band or Area. The background is calculated from a band taken on the specific background of the western blot, to obtain the specific signal or (AU−BG) for each band. The calculation of the percentage of inhibition is performed for each treatment with compound or combination of compounds using the following formula:
Inhibition %=1−(((AU−BG)t/(AU−BG)st))*100

[5] = test system: human melanoma cell line A2058; test: In vitro pro-apoptotic activity (PARP cleavage western blot) in A2058, example 4; type: cell-based
Procedure: as §2, §1, §3

[6] = test system: human melanoma cell line WM-266-4; test: In vitro pro-apoptotic activity (PARP cleavage western blot) in WM-266-4, example 2; type: cell-based; details: for PARP cleavage signal (AU-BG): single agent 10 000 nM, 24 hours, WM-266-4, example 2
Procedure: The characterization of the interaction between compound (I) and compound (II) was studied using western blotting method measuring the expression of cleaved PARP which allows to investigate apoptosis by detecting the cleavage of the PARP protein.
as §4
as §5, with “a 10 fold” for “two 10-fold”, “solution.” for “solution and a 0.1 mM solution”, “mM and” for “mM,”, “1” for “1 mM or 0.1”, “10,000” for “10,000 nM, 1,000”, “1,000” for “100”
as §6
as §7, with “instructions. Western blotting was performed loading 20 μg of proteins in each gel well, and according to the operating procedure.” for “instructions.”
as §8, with “fold induction” for “percentage of inhibition”
Fold Induction=((AU−BG)t/(AU−BG)st)*100

[7] = single agent 10 000 nM, 24 hours
[8] = single agent 10 000 nM, A2058, example 4
[9] = Homo sapiens, single agent 100 nM

Structure (SMILES) | Absolute IC40 ([1]; single agent) | PARP cleavage signal (AU-BG) ([2]; single agent 100 nM) | PARP cleavage signal (AU-BG) ([2]; single agent 1 000 nM) | PARP cleavage signal (AU-BG) ([2]; single agent 10 000 nM) | PARP cleavage signal (AU-BG) ([3]; single agent 100 nM) | PARP cleavage signal (AU-BG) ([3]; single agent 1 000 nM) | PARP cleavage signal (AU-BG) ([3]; single agent 10 000 nM) | inhibition at 0.1 µM ([4]; single agent 100 nM) [%] | pS6 signal (AU-BG) ([4]; single agent 100 nM) | Inhibition % of S6 phosphorylation ([4]; single agent 1 000 nM) [%] | pS6 signal (AU-BG) ([4]; single agent 1 000 nM) | Inhibition % of S6 phosphorylation [4, 7] [%] | pS6 signal (AU-BG) [4, 7] [AU-BG] | PARP cleavage signal (AU-BG) [5, 8] [AU-BG] | PARP cleavage signal (AU-BG) [6] [AU-BG] | also measured
C[C@H]1Cc2ccccc2N1C(=O)Cc1nc(N2CCOCC2)cc(=O)[nH]1 [Compound (I), 2-{2-[(2S)-2-methyl-2,3-dihydro-1H-indol-1-yl]-2-oxoethyl}-6-(morpholin-4-yl)pyrimidin-4(3H)-one] | 11,500 nM | 2380877 | 2685395 | 5173100 | 241428 | 502317 | 1756263 | 69 | 12132104 | 90 | 3984365 | 94 | 2239754 | 2141626 | 509366 | –
CCCS(=O)(=O)Nc1ccc(F)c(C(=O)c2c[nH]c3ncc(-c4ccc(Cl)cc4)cc23)c1F [Compound (II), 1-Propanesulfonamide,N-[3-[[5-(4-chlorophenyl)-1H-pyrrolo[2,3-b]pyridin-3-yl]carbonyl]-2,4-difluorophenyl]] | 1,890 nM | 2431268 | 4540797 | 5192876 | 413818 | 662217 | 876269 | 76 | 9230994 | 92 | 3163194 | 94 | 2333062 | 2501364 | 982219 | IC50 ([1]; Homo sapiens, A2058, approximately, read-out: IC50 with A2058 unsensitive cancer cells): ~4.2 µM; IC40, antiproliferative effect, A2058 ([1]; single agent, approximately): ~1,200 nM; fold induction at 0.1 µM [2, 9]: 1.14; Fold induction of PARP cleavage ([2]; single agent 1 000 nM): 2.13 fold; Fold induction of PARP cleavage ([2]; single agent 10 000 nM): 2.44 fold; fold induction at 0.1 µM [3, 9]: 1.62; Fold induction of PARP cleavage ([3]; single agent 1 000 nM): 2.59 fold; Fold induction of PARP cleavage ([3]; single agent 10 000 nM): 3.42 fold; Fold induction of PARP cleavage ([5]; human, 24 h, 10000 nM): 1.00 fold; Fold induction of PARP cleavage [5, 8]: 1.17 fold; Fold induction of PARP cleavage ([6]; human, WM-266-4 melanoma cells (BRAF mutant, PTEN-deficient), 24 h, 10000 nM): 1.38 fold
